According to patent publication US20250223560A1, “NOX4 INHIBITOR COMPOSITIONS AND METHODS FOR REGENERATION OF DYSTROPHIC MUSCLE” (FULCRUM THERAPEUTICS, INC., priority 2022, published 2025):
Like-named read-outs stand apart in the source and are kept apart here.

Columns and labels:
myoblast-FAP co-cultures = conditions: 0.1 uM, 3 days of differentiation, vs DMSO
Description: The impact of NOX4 inhibition on myogenic differentiation in myoblast-FAP co-cultures was investigated using primary myoblasts isolated from wild-type, uninjured mouse muscles and FAPs isolated from cardiotoxin-injured muscles of ROSA26-tdTomato mice (such mice contain cells that constitutively express the tdTomato fluorescent marker). […] Following 3 days of differentiation, cells were fixed in 4% paraformaldehyde (PFA) and stained for myosin heavy chain (MHC; marker of myogenic differentiation).

[1] = tested on: Bone Marrow Derived Mesenchymal Stem Cells, human (BM-MSC); myofibroblast content; experiment: Myofibroblast reduction phenotype in TGF-beta-1 fibrogenic differentiation culture (high-content imaging); assay type: cell-based
Description: (§1) Bone Marrow Derived Mesenchymal Stem Cells, human (BM-MSC, ATCC PCS-500-012) were cultured in medium composed of Mesenchymal Stem Cell Basal Medium foe Adipose, Umbilcal and Bone Marrow-derived MSCs (ATCC PCS-400030 and Mesenchymal Stem Cell Growth for Bone Marrow-derived MSCs (ATCC PCS-500-041). Cells were seeded at a density of 15,000 cells/well in a 96-well format.
(§2) To induce fibrogenic differentiation BM-MSCs were cultured in a medium composed by Dulbecco's Modified Eagle Medium, 2% horse serum (HS) (Sigma H1270) and 5-10 ng/ml TGF-beta-1 (PreproTech 100-21). Cells were cultured in basal media for 2 days before being switched to fibrogenic differentiation media for 5 days, after which they were taken down for downstream assays. Compound treatment was added when media was switched to fibrogenic differentiation media, cells were treated with 0.1% DMSO if not receiving compound.
(§3) Cells were fixed in 4% PFA for 10 min at RT. Fixed cells were washed three times in 1×PBS and incubated in permeabilization solution (0.5% Triton X-100 in 1×PBS) for 10 min. Unspecific binding were saturated by incubating samples in blocking solution (5% donkey serum in 1×PBS) for 1 h. The cells were incubated at RT for 1 hour with gentle shaking in the presence of primary antibody against, alpha-smooth muscle actin (1:1000, Sigma™ A5228). The cells were washed three times with 0.05% Tween-20 in 1×PBS and incubated, for 1 hour at RT, with host-specific secondary antibodies in addition to counterstaining for Alexa Fluor Plus 750 Phalloidin (1:2000, Invitrogen™, A30105) and DAPI (1:2000). Primary and secondary antibodies were diluted according to the manufacturer's recommendations in blocking solution+0.1% Triton X-100. Finally, the cells were washed three times with 0.05% Tween-20 in 1×PBS, washed twice with 1×PBS and stored at 4° C. Images were acquired on a Thermo Scientific™ CellInsight™ CX7LED high content analysis (HCA) imaging instrument using a 10× objective. Nine fields per well were captured for quantification.
Columbus™ software (version 2.9.1, Perkin Elmer®) was used for analysis of acquired images. A custom analysis pipeline was constructed to quantify the percentage of myofibroblasts within the well. First, nuclei were segmented using “Method B” and intensity and morphology properties were calculated using standard settings. Second, viable nuclei were identified by gating on nuclei intensity, area, and roundness of the segmented objects. Next, a region of interest was then defined around the selected viable nuclei by expanding the outer boarder by […]. STAR morphology and SER texture properties were calculated within the region of interest for the alpha-smooth muscle actin and phalloidin channels using the following parameters: profile width=4 px, scale=1 px, Kernel normalization. The calculated morphology and texture properties were used to train a linear classifier consisting of two classes, myofibroblasts and mesenchymal stem cells, by selecting >100 objects in each negative control (DMSO) and positive control (fibrogenic differentiation media) conditions. The linear classifier was then applied to the untrained test wells using a batch analysis to calculate the percentage of myofibroblasts within each image using a formula output (myofibroblasts:number of objects/viable nuclei:number of objects)*100. Results were averaged across the nine fields imaged per well.
The initial six NOX4 inhibitors were assessed in replicate experiments for both potency of myofibroblast reducing activity and an associated IC50 for the myofibroblast reduction phenotype was determined (Table 1).

cells = conditions: as described in the art; cited from earlier work
[2] = as described; cited from earlier work
mesenchymal stem cells = experiment: Phalloidin (F-actin) / alpha-SMA staining of treated mesenchymal stem cells; assay type: cell-based, human; conditions: for phalloidin (F-actin) staining / α-SMA immunofluorescence and phalloidin (F-actin) staining: 1 μM; for α-SMA immunofluorescence and phalloidin (F-actin) staining: FIG. 15
Description: as §1, §2, §3

NOX4 = target: T1, NOX4 (Homo sapiens, UniProt Q9NPH5); conditions: cited from earlier work
T1 sequence (Q9NPH5 1-578): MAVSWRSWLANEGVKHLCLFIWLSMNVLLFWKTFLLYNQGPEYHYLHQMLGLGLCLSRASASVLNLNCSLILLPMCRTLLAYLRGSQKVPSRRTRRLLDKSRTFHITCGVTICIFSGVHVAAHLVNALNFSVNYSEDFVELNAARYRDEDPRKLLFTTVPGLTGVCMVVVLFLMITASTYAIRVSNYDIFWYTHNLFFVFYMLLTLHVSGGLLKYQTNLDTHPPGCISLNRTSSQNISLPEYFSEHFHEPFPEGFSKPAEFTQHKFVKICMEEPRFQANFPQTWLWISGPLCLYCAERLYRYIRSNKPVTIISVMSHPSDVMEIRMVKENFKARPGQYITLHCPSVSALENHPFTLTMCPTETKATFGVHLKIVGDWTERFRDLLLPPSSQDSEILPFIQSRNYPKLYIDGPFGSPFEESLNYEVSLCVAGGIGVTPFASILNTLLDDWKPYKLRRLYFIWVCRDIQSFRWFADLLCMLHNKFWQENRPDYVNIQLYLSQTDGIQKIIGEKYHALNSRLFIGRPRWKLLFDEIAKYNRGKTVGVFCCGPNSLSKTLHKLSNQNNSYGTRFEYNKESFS
T1 sequence (P13498 1-195 partner): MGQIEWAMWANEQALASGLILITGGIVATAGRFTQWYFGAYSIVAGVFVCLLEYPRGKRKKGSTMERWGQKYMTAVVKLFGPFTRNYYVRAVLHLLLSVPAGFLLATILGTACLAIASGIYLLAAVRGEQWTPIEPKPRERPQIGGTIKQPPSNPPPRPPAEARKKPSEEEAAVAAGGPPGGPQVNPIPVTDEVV

[3] = Homo sapiens, BMMSC, first experiment, read-out: IC50 Phenotype (myofibroblast reduction)
[4] = Homo sapiens, BMMSC, replicate experiment, read-out: IC50 Phenotype Replicate
[5] = reported value, read-out: Reported Potency, IC50

| SMILES | IC50 [1, 3] | IC50 [1, 4] | oral bioavailability [2] | α-SMA immunofluorescence and phalloidin (F-actin) staining (mesenchymal stem cells) | also measured |
| --- | --- | --- | --- | --- | --- |
| c1ccc2c(c1)[I+]c1ccccc1-2 [DPI, diphenyleneiodonium chloride] |  |  |  |  | MHC-positive myocytes (number of cells per mm^2) (myoblast-FAP co-cultures): statistically significant increase; myogenic differentiation of myoblasts (MHC staining) (myoblast-FAP co-cultures): significantly increased |
| CCOC(=O)c1c(NC(=O)CN2CCN(C(=O)c3ccco3)CC2)sc2c1CCC2 [FTX7971] | 4030 nM | 5210 nM | orally bioavailable |  | concentration of described activity in cells (cells): about 5 μM |
| c1ccc(Cn2nnc3c(Sc4nc5ccccc5o4)ncnc32)cc1 [FTX7972] | 889 nM | 898 nM |  |  |  |
| CCCc1c(-c2ccccc2)nn(-c2ccccn2)c1O [FTX7973] |  |  |  |  | IC50 ([1]; first experiment, unit nm [sic], read-out: IC50 Phenotype (myofibroblast reduction)): 638 nM; IC50 ([1]; replicate experiment, unit nm [sic], read-out: IC50 Phenotype Replicate): 781 nM |
| CC(CNS(=O)(=O)c1ccc(C(F)(F)F)cc1)N1CCc2ccccc21 (stereo not drawn) [FTX7974] | 357 nM | 333 nM |  | exhibited both α-SMA immunofluorescence and phalloidin (F-actin) staining | phalloidin (F-actin) staining (mesenchymal stem cells): significant phalloidin staining; IC50 (NOX4; [5]): 2000 nM |
| Cc1ccccc1CCNS(=O)(=O)c1c(Cl)cc(Br)cc1Cl [FTX7981] | 253 nM | 342 nM |  | exhibited both α-SMA immunofluorescence and phalloidin (F-actin) staining | IC50 (NOX4; reported, read-out: IC50 NOX4): 300 nM |
| Cc1ccc(N2CCN(Cc3nc(N)nc(Nc4ccc(C)c(C)c4)n3)CC2)cc1 [FTX7983] |  |  |  | exhibited both α-SMA immunofluorescence and phalloidin (F-actin) staining | IC50 ([1]; Homo sapiens, BMMSC, first experiment, unit nm [sic], read-out: IC50 Phenotype (myofibroblast reduction)): 331 nM; IC50 ([1]; Homo sapiens, BMMSC, replicate experiment, unit nm [sic], read-out: IC50 Phenotype Replicate): 401 nM |
| O=c1c2c3n(c(=O)cc2[nH]n1-c1ccccc1Cl)CCCN(Cc1ccccc1)C3 [FTX7990] | 158 nM | 149 nM | orally bioavailable |  | reduction of myofibroblast content (concentration-response) ([1]; treated cells in culture): dose-dependent reduction of myofibroblast content; Ki (NOX4; reported value, read-out: Reported Potency, Ki): 70 nM |
| COc1cc(NC(=O)c2ccc3cc(Cl)ccc3c2)c(C(=O)O)cc1C#N [FTX7995] | 8.8 nM | 10.9 nM |  | exhibited both α-SMA immunofluorescence and phalloidin (F-actin) staining | phalloidin staining (mesenchymal stem cells; 10 nM): exhibited phalloidin staining; phalloidin staining (mesenchymal stem cells; 100 nM and 1 μM): enhanced phalloidin staining; phalloidin (F-actin) staining (mesenchymal stem cells): significant phalloidin staining; IC50 (NOX4; [5]): 2 nM |
| Cc1c2c(=O)n(-c3ccccc3Cl)[nH]c2cc(=O)n1Cc1ccccn1 [FTX8018] | 149 nM |  | orally bioavailable |  |  |
